Test results taken from patent EP4385495A1, “NANOSYSTEMS FOR THE ENCAPSULATION OF THERAPEUTIC AGENTS” (National Technical University of Athens, priority 2022, dated 2024).

Tests used:
[1] = test system: experimental animal model of osteoarthritis (OA); assay: Grid-walking test in osteoarthritis rat model; type: in vivo, Wistar rats
Procedure: (§1) Rats were anesthetized with chloral hydrate. The right knee joints of Group I were injected with normal saline solution and served as a control. Animals from the groups II, III, IV, V, VI, VII were injected with collagenase type II (Clostridium histolyticum). Collagenase (125 collagen digestion unit/mg) was dissolved in saline, and it was injected intra-articularly into the right knee joint twice on days 1 and 4 of the experiment (Al-Saffar, F., H. Ganabadi and S. Fakurazi. Collagenase and sodium iodoacetate-induced experimental osteoarthritis model in Sprague dawley rats. Asian J. Sci. Res. 2: 1-13, 2009). The left knees of all animals were left untreated as a control.
In this test the rats were allowed to explore freely for 4 minutes in a wire grid and when one of the limbs fell below the grid surface during free walking, the observer counted the number of foot-fault errors (footslips) (Starkey, M. L., Barritt, A. W., Yip, P. K., Davies, M., Hamers, F. P. T., McMahon, S. B., & Bradbury, E. J. (2005). Assessing behavioural function following a pyramidotomy lesion of the corticospinal tract in adult mice. Experimental Neurology, 195(2), 524-539. doi:10.1016/j.expneurol.2005.0).

[2] = test system: experimental animal model of osteoarthritis (OA); assay: Slope walking test in osteoarthritis rat model; type: in vivo, Wistar rats
Procedure: as §1
Walking on an inclined plane was used for the clinical assessment of motor function in rats after induction of OA. The method consists of placing the animal on an inclined plane and then measuring the time (seconds) needed for the animals to go up the walking tray.

CCK-8 viability assay = type: cell-based; conditions: human, primary human chondrocytes; 1 µM, 72h; positive control set to 100; read-out: Mean % relative viability
Procedure: b) The viability of human primary chondrocytes was evaluated following incubation with increasing concentrations of either the pure Naringin (S1) or the nanosystems (Samples S2 and S3) at 2-10-50µM of encapsulated Naringin (1:5 serial dilutions) for 72h (higher concentrations were not used because the nanosystems become insoluble and aggregates sediment on the cell monolayer). For S2 this corresponded to 6,4 µg/ml (for 2 µM of Naringin), 32 µg/ml (for 10 µM of Naringin) and 158 µg/ml (for 50 µM of Naringin) respectively, of total NP concentration. For S3 (CS[PLA[NAR]]) the total NP concentrations to provide the same µM of encapsulated Naringin were 14,4 / 72 / 360 µg/m). As control for the nanosystems, a blank PLA nanoparticle preparation coated with chitosan (S4) was used, at the same µg/ml polymer concentration like the ones used to achieve the 2-10-50µM range for Naringin (the difference being that the blank contains no Naringin). Finally, the blank S4 was used at the 14,4/72/360 µg/ml concentration range (1:5 serial dilutions). Following incubation, the CCK-8 viability kit was used according to manufacturer's instructions (Sigma, 96992-500TESTS-F). Macroscopical and microscopical observation confirmed the proper complete solubility and dispersion of the Nanoparticles. Importantly, healthy cell morphology was observed (spindle-like attached cells with several processes) with concomitant absence of undissolved material.
Table 5. Effect of the natural products and the nanosystems on the relative cell viability of primary human chondrocytes. Measurements obtained using the CCK-8 viability kit. Values normalized to positive control (PC; set to 100; arbitrary unit). Samples' coding: S1= pure Naringin, S2=Naringin encapsulated in PLA nanoparticles [PLA[NAR]], S3=Naringin encapsulated in PLA nanoparticles coated with chitosan CS[PLA[NAR]], and S4=Blank PLA nanoparticles coated with chitosan, CS(PLA[---]].

[3] = Body weight in collagenase-induced osteoarthritis rat model; type: in vivo, Wistar rats
Procedure: (§2) In order to understand the anti-inflammatory and antioxidant potential of the nanoparticles of the invention in vivo an experimental animal model of osteoarthritis (OA) was established. The OA lesions were caused by matrix degradation of articular cartilage using enzymatic means, such as collagenase type-II. Following the induction of osteoarthritis, the studied nanoparticles were administered for 8 weeks in which period the morphological and behavioral changes were measured and finally histological analysis of the articular cartilage samples concluded the in vivo study.
as §1
(§3) Changes in body weight and knee diameter were measured on the 1st, 4th,11th,21st,31st,41st,51st, 61st, 71st day before every injection. Knee diameter was measured using a digital caliper. […] A change in body weight is also measured as one of the parameters to assess the course of the disease in the OA animal models.

[4] = test system: experimental animal model of osteoarthritis (OA); assay: von Frey mechanical allodynia test in osteoarthritis rat model; type: in vivo, Wistar rats; conditions: for Paw Withdrawal Threshold (%): right paw/(right paw + left paw)*100
Procedure: Healthy adult male Wistar rats (150-200 g) were used for the study, with water and food ad libitum, at a constant temperature of 22°C and controlled lighting (12 h light/12 h dark cycle). […] As far as the dispersion procedure of the injectables is concerned, all the natural compounds were dissolved in saline solution, whereas the studied nanoparticles were mechanically grinded in a mortar and pestle set with saline solution and Tween 20 (2% w/v) and heated at 36 °C before each treatment. There were six treatments administered every 10 days. At the end of the experiment rats were euthanized and both knees were collected for histological analysis. Rats were anesthetized with chloral hydrate. The right knee joints of Group I were injected with normal saline solution and served as a control. Animals from the groups II, III, IV, V, VI, VII were injected with collagenase type II (Clostridium histolyticum). Collagenase (125 collagen digestion unit/mg) was dissolved in saline, and it was injected intra-articularly into the right knee joint twice on days 1 and 4 of the experiment ([…] and S. Fakurazi. Collagenase and sodium iodoacetate-induced experimental osteoarthritis model in Sprague dawley rats. Asian J. Sci. Res. 2: 1-13, 2009). The left knees of all animals were left untreated as a control. For the evaluation of the effectiveness and time of release of the encapsulated compounds, all animals were subjected to a series of behavioral testing in addition to the measurements of body weight and knees diameter change. The experimental protocol of the present study followed the combination of three different behavioral tests, which are von Frey mechanical allodynia test, grid walking and slope walking test. Behavioral tests are performed in three phases, at the beginning before the start of treatment, in the middle of treatment (approximately 35-40 days) and at the end (after the 70th day). Mechanical allodynia was tested by the von Frey method which detects pain threshold as the paw withdrawal response. For the testing, rats were placed into plastic chambers that allow access to the plantar surface of the hind paws. […] In Table 15 below, the nociceptive threshold is defined as: nociceptive threshold (%) = ([…])/((nociceptive; threshold on right paw + nociceptive threshold of left paw))*100 [formula] Table 13: von Frey-paw withdrawal threshold (g)

[5] = test system: experimental animal model of osteoarthritis (OA); assay: Knee diameter (digital caliper) and gross observations in collagenase-induced osteoarthritis rat model; type: in vivo, Wistar rats; conditions: for Right knee diameter: collagenase-injected knee; for Left knee diameter: untreated control knee
Procedure: as §2, §1, §3

RAW264.7 cells = assay: MTT cell viability assay; type: cell-based, mouse; conditions: 24h
Source text: The MTT (3-[4,5-dimethylthiazol-2-yl]-2,5 diphenyl tetrazolium bromide) assay is based on the ability of viable cells with active metabolism to convert the yellow MTT to a purple formazan product, which determines mitochondrial activity. The MTT formazan product agglomerates as an insoluble residuum within the cells, which can be solubilized (in this protocol with DMSO) for homogeneous measurement. Thus, any increase or decrease in the number of viable cells can be detected by measuring the formazan concentration reflected in the optical density (OD) measurement at 540 nm with a reference absorption of 720 nm. This assay is broadly used to measure the in vitro cytotoxic effects of drugs on cell lines or primary cells. For the experimental procedure a standard solution of MTT 1mg/mL in PBS was prepared which after filtration ([…] filter (Millipore, Carrigtwohill, Ireland)) was stored in the dark (4-8 °C) until use. In brief, RAW 264.7 cells were seeded in a 96-well plate at a density of 30.000 cells/ in 100 µL of medium per well. […] This was followed by incubation for 24 h, 48 h and 72 h. At the end of the incubation 10 µL of MTT was added to each well followed by incubation for 4 hours, for the formation of the formazan crystals. The formazan crystals were then dissolved by adding DMSO and stirring lightly for 30 min, after which the absorbance was measured in a plate reader at 540 nm with a reference absorbance of 720 nm. […] Table 4: % cell viability after treatment of RAW264.7 cells with the samples

[6] = 70 days (end of experimental protocol)
[7] = 1st injection CO/saline (before treatment)
[8] = 2nd injection CO/saline (before treatment)

Compound: CC(C)Cc1ccc(C(C)C(=O)O)cc1 (centres unmarked) [IBUPROFEN, ibuprofen]
- Foot fault in grid-walk test (4 min) ([1]; 11 days left paw): 1,4
- Foot fault in grid-walk test (4 min) ([1]; 11 days right paw): 2,8
- Foot fault in grid-walk test (4 min) ([1]; 40 days left paw): 1,8
- Foot fault in grid-walk test (4 min) ([1]; 40 days right paw): 1,2
- Foot fault in grid-walk test (4 min) ([1]; 70 days left paw): 1
- Foot fault in grid-walk test (4 min) ([1]; 70 days right paw): 1
- Slope Walking ([2]; 11 days (before treatment)): 9,8 sec
- Slope Walking [2, 6]: 8,9 sec
- viability at 72 h, 1 µM (CCK-8 viability assay): 100%
- Body Weight (BW) [3, 7]: 234 g
- Body Weight (BW) ([3]; 1st treatment, 10 mg/kg (S1, ibuprofen i.p.; nanoparticles i.a.), every 10 days): 245 g
- Body Weight (BW) [3, 8]: 230 g
- Body Weight (BW) ([3]; 2nd treatment, 10 mg/kg (S1, ibuprofen i.p.; nanoparticles i.a.)): 276 g
- Body Weight (BW) ([3]; 3rd treatment, 10 mg/kg (S1, ibuprofen i.p.; nanoparticles i.a.)): 296 g
- Body Weight (BW) ([3]; 4th treatment, 10 mg/kg (S1, ibuprofen i.p.; nanoparticles i.a.)): 303 g
- Body Weight (BW) ([3]; 5th treatment, 10 mg/kg (S1, ibuprofen i.p.; nanoparticles i.a.)): 308 g
- Body Weight (BW) ([3]; 6th treatment, 10 mg/kg (S1, ibuprofen i.p.; nanoparticles i.a.)): 313 g
- % Changes in Body Weight (BW) ([3]; 11 days (before treatment)): 4,7%
- % Changes in Body Weight (BW) [3, 6]: 40,2%
- Body Weight (BW) ([3]; final, 10 mg/kg (S1, ibuprofen i.p.; nanoparticles i.a.)): 328 g
- von Frey-paw withdrawal threshold ([4]; 11 days (before treatment)): 59,78 g
- von Frey-paw withdrawal threshold ([4]; 70 days (end of experimental protocol), 10 mg/kg (S1, ibuprofen i.p.; nanoparticles i.a.)): 83,8 g
- von Frey-paw withdrawal threshold ([4]; left-control paw): 93,9 g
- Paw Withdrawal Threshold (%) ([4]; 11 days (before treatment)): 38,90%
- Paw Withdrawal Threshold (%) [4, 6]: 45,44%
- % Changes in Left knee diameter ([5]; 11 days (before treatment)): 0,02%
- % Changes in Right knee diameter ([5]; 11 days (before treatment)): 0,91%
- % Changes in Left knee diameter [5, 6]: 0,44%
- % Changes in Right knee diameter [5, 6]: 0,37%
- Right knee diameter [5, 7]: 0,8128 cm
- Right knee diameter ([5]; 1st treatment, 10 mg/kg (S1, ibuprofen i.p.; nanoparticles i.a.)): 0,8202 cm
- Right knee diameter [5, 8]: 0,8192 cm
- Right knee diameter ([5]; 3rd treatment): 0,8172 cm
- Right knee diameter ([5]; 4th treatment): 0,8174 cm
- Right knee diameter ([5]; 5th treatment): 0,817 cm
- Right knee diameter ([5]; 6th treatment): 0,816 cm
- Right knee diameter ([5]; final): 0,8158 cm
- Left knee diameter ([5]; 1st injection CO/saline): 0,8158 cm
- Left knee diameter ([5]; 1st treatment): 0,816 cm
- Left knee diameter ([5]; 2nd injection CO/saline): 0,816 cm
- Left knee diameter ([5]; 4th treatment): 0,8184 cm
- Left knee diameter ([5]; final): 0,8194 cm

Compound: COc1cc(C2Oc3cc([C@H]4Oc5cc(O)cc(O)c5C(=O)[C@@H]4O)ccc3OC2CO)ccc1O (some centres unmarked) [PC (Silibinin), silibinin]
- % cell viability (RAW264.7 cells; 25 µM): 30%
- % cell viability (RAW264.7 cells; 50 µM): 20%
